Active and inactive are the calls of the source. No rule for the calls is given here.

The test system of the series is CCRIS mutagenicity, Ames/micronucleus/aberration tests. Nature of the series: CCRIS mutagenicity studies.
The mark [1] stands for this setting: Test System: AMES SALMONELLA TYPHIMURIUM, Strain/Indicator: TA98, Metabolic Activation: NONE, Method: PREINCUBATION
Setting [2] is: Test System: AMES SALMONELLA TYPHIMURIUM, Strain/Indicator: TA100, Metabolic Activation: NONE, Method: PREINCUBATION
Where [3] appears, read: Test System: AMES SALMONELLA TYPHIMURIUM, Strain/Indicator: TA1535, Metabolic Activation: NONE, Method: PREINCUBATION
[4] abbreviates: Test System: AMES SALMONELLA TYPHIMURIUM, Strain/Indicator: TA1537, Metabolic Activation: NONE, Method: PREINCUBATION

Regarding `Clc1cccc(Cl)c1`, the mutagenic call (Test System: AMES SALMONELLA TYPHIMURIUM, Strain/Indicator: TA98, Metabolic Activation: HAMSTER, LIVER, S-9, AROCLOR 1254, Method: PREINCUBATION) is “inactive; negative”; the mutagenic call under setting [1] was “inactive; negative”; the mutagenic call (Test System: AMES SALMONELLA TYPHIMURIUM, Strain/Indicator: TA98, Metabolic Activation: NONE, Method: STANDARD PLATE) is “inactive; negative”; the mutagenic call (Test System: AMES SALMONELLA TYPHIMURIUM, Strain/Indicator: TA98, Metabolic Activation: RAT, LIVER, S-9, AROCLOR 1254, Method: PREINCUBATION) was “inactive; negative”; the mutagenic call (Test System: AMES SALMONELLA TYPHIMURIUM, Strain/Indicator: TA98, Metabolic Activation: RAT, LIVER, S-9, AROCLOR, Method: STANDARD PLATE) is “inactive; negative”; the mutagenic call (Test System: AMES SALMONELLA TYPHIMURIUM, Strain/Indicator: TA100, Metabolic Activation: HAMSTER, LIVER, S-9, AROCLOR 1254, Method: PREINCUBATION) was “inactive; negative”. In addition, the mutagenic call is “inactive; negative” under setting [2]; “inactive; negative” (Test System: AMES SALMONELLA TYPHIMURIUM, Strain/Indicator: TA100, Metabolic Activation: NONE, Method: STANDARD PLATE); “inactive; negative” (Test System: AMES SALMONELLA TYPHIMURIUM, Strain/Indicator: TA100, Metabolic Activation: RAT, LIVER, S-9, AROCLOR 1254, Method: PREINCUBATION); “inactive; negative” (Test System: AMES SALMONELLA TYPHIMURIUM, Strain/Indicator: TA100, Metabolic Activation: RAT, LIVER, S-9, AROCLOR, Method: STANDARD PLATE); “inactive; negative” (Test System: AMES SALMONELLA TYPHIMURIUM, Strain/Indicator: TA1535, Metabolic Activation: HAMSTER, LIVER, S-9, AROCLOR 1254, Method: PREINCUBATION); “inactive; negative” under setting [3]. The mutagenic call is, setting by setting: (Test System: AMES SALMONELLA TYPHIMURIUM, Strain/Indicator: TA1535, Metabolic Activation: RAT, LIVER, S-9, AROCLOR 1254, Method: PREINCUBATION) “inactive; negative”; (Test System: AMES SALMONELLA TYPHIMURIUM, Strain/Indicator: TA1537, Metabolic Activation: HAMSTER, LIVER, S-9, AROCLOR 1254, Method: PREINCUBATION) “inactive; negative”; under setting [4], “inactive; negative”; (Test System: AMES SALMONELLA TYPHIMURIUM, Strain/Indicator: TA1537, Metabolic Activation: RAT, LIVER, S-9, AROCLOR 1254, Method: PREINCUBATION) “inactive; negative”; (Test System: AMES SALMONELLA TYPHIMURIUM, Strain/Indicator: UTH8413, Metabolic Activation: NONE, Method: STANDARD PLATE) “inactive; negative”; (Test System: AMES SALMONELLA TYPHIMURIUM, Strain/Indicator: UTH8413, Metabolic Activation: RAT, LIVER, S-9, AROCLOR, Method: STANDARD PLATE) “inactive; negative”. For the same compound, the mutagenic call (Test System: AMES SALMONELLA TYPHIMURIUM, Strain/Indicator: UTH8414, Metabolic Activation: NONE, Method: STANDARD PLATE) is “inactive; negative” and the mutagenic call (Test System: AMES SALMONELLA TYPHIMURIUM, Strain/Indicator: UTH8414, Metabolic Activation: RAT, LIVER, S-9, AROCLOR, Method: STANDARD PLATE) was “inactive; negative”.

As to `CCCCCCCCCc1ccc(OP(=O)(Oc2ccccc2)Oc2ccccc2)cc1`, the mutagenic call runs as follows: (Test System: AMES SALMONELLA TYPHIMURIUM, Strain/Indicator: TA97, Metabolic Activation: HAMSTER, LIVER, S-9, AROCLOR 1254 (5, 10 OR 30%), Method: PREINCUBATION) “inactive; negative”; (Test System: AMES SALMONELLA TYPHIMURIUM, Strain/Indicator: TA97, Metabolic Activation: RAT, LIVER, S-9, AROCLOR 1254 (10%), Method: PREINCUBATION) “inactive; negative”; (Test System: AMES SALMONELLA TYPHIMURIUM, Strain/Indicator: TA97, Metabolic Activation: RAT, LIVER, S-9, AROCLOR 1254 (30%), Method: PREINCUBATION) “inactive; negative”; (Test System: AMES SALMONELLA TYPHIMURIUM, Strain/Indicator: TA98, Metabolic Activation: HAMSTER, LIVER, S-9, AROCLOR 1254 (10 OR 30%), Method: PREINCUBATION) “inactive; negative”; under setting [1], “inactive; negative”; (Test System: AMES SALMONELLA TYPHIMURIUM, Strain/Indicator: TA98, Metabolic Activation: RAT, LIVER, S-9, AROCLOR 1254 (10 OR 30%), Method: PREINCUBATION) “inactive; negative”. Also, the mutagenic call was “inactive; negative” (Test System: AMES SALMONELLA TYPHIMURIUM, Strain/Indicator: TA100, Metabolic Activation: HAMSTER, LIVER, S-9, AROCLOR 1254 (10 OR 30%), Method: PREINCUBATION); “inactive; negative” under setting [2]; “inactive; negative” (Test System: AMES SALMONELLA TYPHIMURIUM, Strain/Indicator: TA100, Metabolic Activation: RAT, LIVER, S-9, AROCLOR 1254 (10 OR 30%), Method: PREINCUBATION); “inactive; negative” (Test System: AMES SALMONELLA TYPHIMURIUM, Strain/Indicator: TA1535, Metabolic Activation: HAMSTER, LIVER, S-9, AROCLOR 1254 (10 OR 30%), Method: PREINCUBATION); “inactive; negative” under setting [3]; “inactive; negative” (Test System: AMES SALMONELLA TYPHIMURIUM, Strain/Indicator: TA1535, Metabolic Activation: RAT, LIVER, S-9, AROCLOR 1254 (10 OR 30%), Method: PREINCUBATION). Besides, the mutagenic call (Test System: AMES SALMONELLA TYPHIMURIUM, Strain/Indicator: TA1537, Metabolic Activation: HAMSTER, LIVER, S-9, AROCLOR 1254 (5, 10 OR 30%), Method: PREINCUBATION) was “inactive; negative”; the mutagenic call under setting [4] was “inactive; negative”; the mutagenic call (Test System: AMES SALMONELLA TYPHIMURIUM, Strain/Indicator: TA1537, Metabolic Activation: RAT, LIVER, S-9, AROCLOR 1254 (5, 10 OR 30%), Method: PREINCUBATION) was “inactive; negative”.

Regarding `Cc1c2cc(CO)ccc2nc2c3c(ccc12)[C@H](O)[C@@H](O)C=C3`, the mutagenic call (Test System: AMES SALMONELLA TYPHIMURIUM, Strain/Indicator: TA100, Metabolic Activation: RAT, LIVER, S-9, AROCLOR 1254, Method: STANDARD PLATE) was “active; positive”.

Take `CC/C=C\C#N`: the mutagenic call was “active; positive. reevaluation of results: positive” (Test System: MOUSE LYMPHOMA, Strain/Indicator: L5178Y (TK+/TK-), Metabolic Activation: NONE, Method: SUSPENSION/PLATE) and “active; positive” (Test System: Mouse lymphoma, Strain/Indicator: L5178Y (tk+/tk-), Metabolic Activation: Rat, Liver, S-9, Aroclor 1254, Method: Suspension/plate).

These data come from PubChem BioAssay AID1259407 (Chemical Carcinogenesis Research Information System (CCRIS), 2018).
